Measurements from patent publication US20200093103A1, “BREEDING WATER FOR ANGUILLIFORMES AND METHOD FOR REARING ANGUILLIFORMES” (SHIN NIPPON BIOMEDICAL LABORATORIES, LTD., priority 2016, published 2020).

Test system: Anguilla japonica leptocephali
Assay: Induction of Anguilla japonica metamorphosis by T4 treatment in 23° C. breeding water
Assay type: in vivo
Parameters: key: L: During life, no characteristics of metamorphosis seen.; Stage 1: Starting phase of metamorphosis. The rostral end is rounded, and intestinal degeneration starts.; Stage 2: Peak phase of metamorphosis. Intestinal degeneration becomes pronounced.; Stage 3: Late phase of metamorphosis.; Stage 4: Pre-glass eel stage. Almost the eel form, but the body height still remains
From the text: Stage 1: Starting phase of metamorphosis. The rostral end is rounded, and intestinal degeneration starts.
Stage 2: Peak phase of metamorphosis. Intestinal degeneration becomes pronounced. In the second half, the anus reaches to near the last vertical blood vessel (VBV last).
Stage 3: Late phase of metamorphosis. The preanal length (PAL) becomes equal to or shorter than the last vertical blood vessel length (VBV last Length) (PAL VBV last Length). The body height is apparently low.
Stage 4: Pre-glass eel stage. Almost the eel form, but the body height still remains. Melanophores on the body surface or endogenous melanophores are not yet seen.
Elver stage: Juvenile stage. Food intake can be identified.
A thyroid hormone (e.g., thyroxine (T4)) is adjusted to 50 to 100 mM in a 1- to 2-mL volume messflask. As a solvent, known solvents (water, alcohol) can be used. Ethanol is preferably used as the solvent.
For example, using ethanol as a solvent, T4 adjusted to 50 mM is diluted 500-fold, 5,000-fold, and 50,000-fold, respectively, and adjusted to […], 1 μM, and 100 nM. A feed can be prepared in this manner.
Artificial seawater is added to a breeding vessel, and 1/1000 of the […] T4 is added to prepare […] T4 breeding water.
Half of the breeding water is replaced every two days with breeding water of the same concentration. In the case where the concentration is changed, for example, in the case of changing from 10 nM to 2 nM, 80% to the breeding water is removed, and unadjusted artificial seawater is newly added to make 1 L.
Leptocephali visually considered to have reached a total length of 40 mm (or may be 30 mm to 50 mm, may be 35 mm to 45 mm, or may also be 35 mm or more, 40 mm or more, or 45 mm or more) are selected, anesthetized with 2-phenoxyethanol, and then photographed, and the total length of each larva is measured using an image analyzing device.
The larvae are placed in 10 nM T4 breeding water and then placed in an incubator set at 23° C., and breeding is started. In first one week, observation is performed every two days, and half of the 10 nM T4 breeding water is replaced each time. The average amount of thyroid hormone in the breeding water in stage 1 is 1 nM to 100 nM, for example, and may also be 3 nM to 30 nM, or 5 nM to 20 nM.
For larvae visually judged to have reached the second half of stage 2, the concentration of the breeding water is changed. The breeding water is diluted 5-fold or 10-fold and adjusted to 2 nM or 1 nM T4, and breeding is continued. The average amount of thyroid hormone in the breeding water in stage 2 may be, as compared with the breeding water of stage 1, diluted 2-fold to 20-fold, diluted 3 to 15-fold, or diluted 5 to 10-fold as described above. The average amount of thyroid hormone in the breeding water in stage 2 is 0.1 nM to 20 nM, for example, and may also be 0.5 nM to 10 nM, 1 nM to 5 nM, or 1 nM to 2 nM.
For larvae visually judged to have reached stage 3, the breeding water is quickly changed 0.2 nM T4 breeding water, which is a 5-fold dilution of 1 nM T4 breeding water, and further changed to 0.1 nM T4 breeding water on the following day. […] Also, in larvae whose anus position has not reached the last vertical hemal spine, when they are judged to be on the brink of stage 3, the concentration is changed as above. The average amount of thyroid hormone in the breeding water in stage 3 may be, as compared with the breeding water of stage 2, diluted 2-fold to 50-fold, diluted 3 to 15-fold, diluted 4 to 6-fold, or diluted 5-fold as described above. The average amount of thyroid hormone in the breeding water in stage 3 is 0.01 nM to 2 nM, for example, and may also be 0.05 nM to 1 nM, 0.1 nM to 0.5 nM, or 0.1 nM to 0.2 nM. […] That is, the concentration may be changed such that the thyroid hormone becomes undetectable in the breeding water in the course of stage 3.
In stage 3, breeding is continuously performed in the 0.1 nM T4 breeding water. […]

## N[C@@H](Cc1cc(I)c(Oc2cc(I)c(O)c(I)c2)c(I)c1)C(=O)O [T4, thyroxine]
Individual Exp 5-4, 175 days old, total length 43.5 mm at start, c3 onward = treatment days 1,3,5,7,8,9,10,11,12,13,14,15,16,17,18, T4 (nM) 10,10,10,10,2,1,0.2,0.1,0.1,0.1,0.1,0.1, treatment day 1, T4 10 nM
  metamorphosis stage: L
Individual Exp 5-4, 175 days old, total length 43.5 mm at start, c3 onward = treatment days 1,3,5,7,8,9,10,11,12,13,14,15,16,17,18, T4 (nM) 10,10,10,10,2,1,0.2,0.1,0.1,0.1,0.1,0.1, treatment day 3, T4 10 nM
  metamorphosis stage: L
Individual Exp 5-4, 175 days old, total length 43.5 mm at start, c3 onward = treatment days 1,3,5,7,8,9,10,11,12,13,14,15,16,17,18, T4 (nM) 10,10,10,10,2,1,0.2,0.1,0.1,0.1,0.1,0.1, treatment day 5, T4 10 nM
  metamorphosis stage: 2
Individual Exp 5-4, 175 days old, total length 43.5 mm at start, c3 onward = treatment days 1,3,5,7,8,9,10,11,12,13,14,15,16,17,18, T4 (nM) 10,10,10,10,2,1,0.2,0.1,0.1,0.1,0.1,0.1, treatment day 7, T4 10 nM
  metamorphosis stage: 2
Individual Exp 5-4, 175 days old, total length 43.5 mm at start, c3 onward = treatment days 1,3,5,7,8,9,10,11,12,13,14,15,16,17,18, T4 (nM) 10,10,10,10,2,1,0.2,0.1,0.1,0.1,0.1,0.1, treatment day 8, T4 2 nM
  metamorphosis stage: 2
Individual Exp 5-4, 175 days old, total length 43.5 mm at start, c3 onward = treatment days 1,3,5,7,8,9,10,11,12,13,14,15,16,17,18, T4 (nM) 10,10,10,10,2,1,0.2,0.1,0.1,0.1,0.1,0.1, treatment day 9, T4 1 nM
  metamorphosis stage: 2
Individual Exp 5-4, 175 days old, total length 43.5 mm at start, c3 onward = treatment days 1,3,5,7,8,9,10,11,12,13,14,15,16,17,18, T4 (nM) 10,10,10,10,2,1,0.2,0.1,0.1,0.1,0.1,0.1, treatment day 10, T4 0.2 nM
  metamorphosis stage: 2
Individual Exp 5-4, 175 days old, total length 43.5 mm at start, c3 onward = treatment days 1,3,5,7,8,9,10,11,12,13,14,15,16,17,18, T4 (nM) 10,10,10,10,2,1,0.2,0.1,0.1,0.1,0.1,0.1, treatment day 11, T4 0.1 nM
  metamorphosis stage: 2
Individual Exp 5-4, 175 days old, total length 43.5 mm at start, c3 onward = treatment days 1,3,5,7,8,9,10,11,12,13,14,15,16,17,18, T4 (nM) 10,10,10,10,2,1,0.2,0.1,0.1,0.1,0.1,0.1, treatment day 12, T4 0.1 nM
  metamorphosis stage: 3
Individual Exp 5-4, 175 days old, total length 43.5 mm at start, c3 onward = treatment days 1,3,5,7,8,9,10,11,12,13,14,15,16,17,18, T4 (nM) 10,10,10,10,2,1,0.2,0.1,0.1,0.1,0.1,0.1, treatment day 13, T4 0.1 nM
  metamorphosis stage: 3
Individual Exp 5-4, 175 days old, total length 43.5 mm at start, c3 onward = treatment days 1,3,5,7,8,9,10,11,12,13,14,15,16,17,18, T4 (nM) 10,10,10,10,2,1,0.2,0.1,0.1,0.1,0.1,0.1, treatment day 14, T4 0.1 nM
  metamorphosis stage: 3
Individual Exp 5-4, 175 days old, total length 43.5 mm at start, c3 onward = treatment days 1,3,5,7,8,9,10,11,12,13,14,15,16,17,18, T4 (nM) 10,10,10,10,2,1,0.2,0.1,0.1,0.1,0.1,0.1, treatment day 15, T4 0.1 nM
  metamorphosis stage: 4
Individual Exp 5-5, 174 days old, total length 36.1 mm at start, c3 onward = treatment days 1,3,5,7,8,9,10,11,12,13,14,15,16,17, T4 (nM) 10,10,10,10,10,10,10,2,0.2,0.1,0.1,0.1,0.1,0.1, treatment day 1, T4 10 nM
  metamorphosis stage: L
Individual Exp 5-5, 174 days old, total length 36.1 mm at start, c3 onward = treatment days 1,3,5,7,8,9,10,11,12,13,14,15,16,17, T4 (nM) 10,10,10,10,10,10,10,2,0.2,0.1,0.1,0.1,0.1,0.1, treatment day 3, T4 10 nM
  metamorphosis stage: L
Individual Exp 5-5, 174 days old, total length 36.1 mm at start, c3 onward = treatment days 1,3,5,7,8,9,10,11,12,13,14,15,16,17, T4 (nM) 10,10,10,10,10,10,10,2,0.2,0.1,0.1,0.1,0.1,0.1, treatment day 5, T4 10 nM
  metamorphosis stage: L
Individual Exp 5-5, 174 days old, total length 36.1 mm at start, c3 onward = treatment days 1,3,5,7,8,9,10,11,12,13,14,15,16,17, T4 (nM) 10,10,10,10,10,10,10,2,0.2,0.1,0.1,0.1,0.1,0.1, treatment day 7, T4 10 nM
  metamorphosis stage: L
Individual Exp 5-5, 174 days old, total length 36.1 mm at start, c3 onward = treatment days 1,3,5,7,8,9,10,11,12,13,14,15,16,17, T4 (nM) 10,10,10,10,10,10,10,2,0.2,0.1,0.1,0.1,0.1,0.1, treatment day 8, T4 10 nM
  metamorphosis stage: 2
Individual Exp 5-5, 174 days old, total length 36.1 mm at start, c3 onward = treatment days 1,3,5,7,8,9,10,11,12,13,14,15,16,17, T4 (nM) 10,10,10,10,10,10,10,2,0.2,0.1,0.1,0.1,0.1,0.1, treatment day 9, T4 10 nM
  metamorphosis stage: 2
Individual Exp 5-5, 174 days old, total length 36.1 mm at start, c3 onward = treatment days 1,3,5,7,8,9,10,11,12,13,14,15,16,17, T4 (nM) 10,10,10,10,10,10,10,2,0.2,0.1,0.1,0.1,0.1,0.1, treatment day 10, T4 10 nM
  metamorphosis stage: 2
Individual Exp 5-5, 174 days old, total length 36.1 mm at start, c3 onward = treatment days 1,3,5,7,8,9,10,11,12,13,14,15,16,17, T4 (nM) 10,10,10,10,10,10,10,2,0.2,0.1,0.1,0.1,0.1,0.1, treatment day 11, T4 2 nM
  metamorphosis stage: 3
Individual Exp 5-5, 174 days old, total length 36.1 mm at start, c3 onward = treatment days 1,3,5,7,8,9,10,11,12,13,14,15,16,17, T4 (nM) 10,10,10,10,10,10,10,2,0.2,0.1,0.1,0.1,0.1,0.1, treatment day 12, T4 0.2 nM
  metamorphosis stage: 3
Individual Exp 5-5, 174 days old, total length 36.1 mm at start, c3 onward = treatment days 1,3,5,7,8,9,10,11,12,13,14,15,16,17, T4 (nM) 10,10,10,10,10,10,10,2,0.2,0.1,0.1,0.1,0.1,0.1, treatment day 13, T4 0.1 nM
  metamorphosis stage: 3
Individual Exp 5-5, 174 days old, total length 36.1 mm at start, c3 onward = treatment days 1,3,5,7,8,9,10,11,12,13,14,15,16,17, T4 (nM) 10,10,10,10,10,10,10,2,0.2,0.1,0.1,0.1,0.1,0.1, treatment day 14, T4 0.1 nM
  metamorphosis stage: 3
Individual Exp 5-5, 174 days old, total length 36.1 mm at start, c3 onward = treatment days 1,3,5,7,8,9,10,11,12,13,14,15,16,17, T4 (nM) 10,10,10,10,10,10,10,2,0.2,0.1,0.1,0.1,0.1,0.1, treatment day 15, T4 0.1 nM
  metamorphosis stage: 3
